Assay results reported in patent US8044098B2, “Use of hydroxybenzoic acids and their esters and analogues for preventing or treating virus infection” (Shenghua Guangzhou Pharmaceutical Science & Technology Co., …, priority 2005, dated 2011).

What was measured:
[1] = system: HPV 6/11; test: Drug screening by quantitative fluorescent PCR analysis of HPV 6/11 in condyloma acuminata homogenate; set-up: species or system human papillomavirus (HPV); settings: for HPV 6/11 Virus (copies/ml): 50 μl 10% micro emulsion + 50 μl HPV sample homogenate, 37° C., 24 hours, saline control 1.45 × 10^6; for HPV 6/11 detected by FQ-PCR (in words): 24 hours after adding the test compound
[2] = system: HPV 16/18; test: Drug screening by quantitative fluorescent PCR analysis of HPV 16/18 in condyloma acuminata homogenate; set-up: species or system human papillomavirus (HPV); settings: for HPV 16/18 Virus (copies/ml): 50 μl 10% micro emulsion + 50 μl HPV sample homogenate, 37° C., 24 hours, saline control 1.40 × 10^5; for HPV 16/18 detected by FQ-PCR (in words): 24 hours after adding the test compound
[3] = system: condyloma acuminata; test: Clinical use in treating condyloma acuminata; assay type: in vivo, human; settings: for treatment effect compared to recombinant human interferon α-2β gel: condyloma acuminata patients, 10% micro emulsion; for Recovered, 1-4 days: number of patients (50 patients in five groups), 10% micro emulsion on affected areas three times a day; for Obvious Effect, 1-4 days / Obvious Effect, 5-8 days: more than 70% of the skin lesions disappeared; for Improved: more than 30% of the skin lesions disappeared
Text: Soft hyperplasia with nipple or cauliflower shaped or other shaped warts were found around the skin of the cunnus or anus. The result from 5% acetate acid white test was positive.
Patients selected for the clinical observation must meet the above standards. Plus the diameter of their skin lesions should equal to or be less than 1 cm. […] Patients who had vaginal yeast, trichomonas, bacteria infection or other complications, chronic diseases, serious liver or kidney diseases or women in pregnancy or lactation were not selected. Treatments to women would not be conducted in their menstrual periods.
50 qualified patients were selected and randomly divided into five groups to be tested with p-hydroxybenzoic acid, gallic acid, ethyl p-hydroxybenzoate, propyl gallate and recombinant human interferon α-2β gel, respectively. The samples of p-hydroxybenzoic acid, gallic acid, ethyl p-hydroxybenzoate and propyl gallate were prepared as described in Example 1. The patients were treated with the test sample to the affected areas three times a day, in the morning, at noon and night. The samples were applied to cover the warts and the patients were required to leave the treated areas exposed and not to move for 20 minutes.
Observation time: 8 days. Patients not cured after 8 days would continue to use the test samples for another 12 weeks, and their prognosis was followed during the 12-week period.
Observed items: the location, shape, size and number of warts were carefully observed and recorded before the treatment.
“Recovered”: all skin lesions had disappeared;
“Obvious Effect”: more than 70% of the skin lesions had disappeared;
“Improved”: more than 30% of the skin lesions had disappeared;
“Not Effective”: less than 30% of the skin lesions had disappeared or the original skin lesions didn't change or even enlarged.

[4] = system: secretion of HBeAg by 2.2.15 cells; test: Inhibition of secretion of HBeAg by Hepatitis B 2.2.15 cell line; assay type: cell-based, HBV; settings: 1 μmol/ml; for HBeAg Inhibition Rate: 2.2.15 cells, supernatant collected three days later
Text: (§1) Hepatitis B 2.2.15 cell line was transfected by HBV DNA (purchased from Institute of Biochemistry and Cell Biology of Shanghai Institute for Biological Sciences or the National Center for Drug Screening) and used as the cell model for screening anti-HBV drug compounds (See Chinese Journal Of Integrated Traditional and Western Medicine on Liver Diseases, 2004, 14(3): 158). The cell culture medium DMEM (GIBCO Company), bovine serum (Hangzhou Siji Qing Biochemical Manufacturer), G418 (GIBCO Company), 3-(4,5-dimethylthiazol-2-yl)-2,5-diphenyltetrazoliumbromide (Sigma), HBsAg and HBeAg diagnostic kit (Shanghai Kehua Bio-engineering Co., Ltd).
(§2) The test compounds listed in Table 3 below were dissolved in a mixture containing 20 ml 1,2-propylene glycol and 15 ml Tween-80 and diluted with sterile saline water to 2 μmol/ml of the test compound. Then it was mixed with the cell culture medium at equal volume to obtain a solution containing 1 μmol/ml of the tested compound. Cells at the concentration of 1×10^5 cells per milliliter were inoculated to a 24-well plate at 1 ml/well. Supernatant from the cell culture mixture was collected three days later for testing.

[5] = system: secretion of HBsAg by 2.2.15 cells; test: Inhibition of secretion of HBsAg by Hepatitis B 2.2.15 cell line; assay type: cell-based, HBV; settings: 1 μmol/ml; for HBsAg Inhibition rate: 2.2.15 cells, supernatant collected three days later
Text: as §1, §2

[6] = assay type: physicochemical
Method: 20 ml 1,2-propylene glycol, 15 ml Tween-80 and 5 ml azone were mixed together and sterile distilled water was added to bring the volume to 100 ml. The pH value of the solution was adjusted to pH 6.8 with NaOH or HCl to obtain a micro emulsion. 10 g propyl gallate and 10 g gallic acid were dissolved in the micro emulsion, respectively, and mixed well. 10 ml of each micro emulsion was added to a capped transparent glass tube. Both solutions were colorless. The absorbance of the two solutions at 400˜500 nm was measured with spectrophotometry and their absorbance was under 0.15. […] Measured by spectrophotometry again, the absorbance of the gallic acid solution was 1.2 and that of the propyl gallate solution was 0.4.

[7] = system: HSV infection; test: External treatment of HSV infection in clinical tests; assay type: in vivo, human; settings: patients with HSV infection, applied on affected areas three times a day
Text: Twenty-two patients who were clinically diagnosed with HSV infection were randomly selected and divided into two groups. Acyclovir ointment and micro emulsion containing propyl gallate prepared as described in Example 1 were applied to the two groups, respectively, on the affected areas of the patients three times a day.

[8] = number of patients, observation 8 days

Row | SMILES | HPV 6/11 Virus (copies/ml) [1] | HPV 16/18 Virus (copies/ml) [2] | HPV 16/18 detected by FQ-PCR (in words) [2] | HPV 6/11 detected by FQ-PCR (in words) [1] | also measured
1 | O=C(O)c1ccccc1 [Benzoic acid, benzoic acid] | 3.60 × 10^5 copies/ml | 2.90 × 10^4 copies/ml |  |  | 
2 | O=C(O)c1ccc(O)c(Br)c1 [3-bromo-4-hydroxybenzoic acid] | 3.40 × 10^3 copies/ml | 5.00 × 10^4 copies/ml |  |  | 
3 | CCCCCCCCCCCCOC(=O)c1cc(O)c(O)c(O)c1 [dodecyl gallate, Dodecyl gallate] | 6.70 × 10^4 copies/ml | 4.90 × 10^4 copies/ml |  |  | 
4 | COC(=O)c1ccc(O)cc1O [Methyl 2,4-dihydroxybenzoate] | 5.20 × 10^4 copies/ml | 2.50 × 10^2 copies/ml |  |  | 
5 | CCOC(=O)c1ccc(O)cc1 [Ethyl p-hydroxybenzoate] | 8.50 × 10^4 copies/ml | 0 copies/ml | not detected |  | treatment effect compared to recombinant human interferon α-2β gel [3]: more apparent treatment effect; Recovered, 1-4 days ([3]; all skin lesions disappeared): 6; Recovered, 5-8 days ([3]; number of patients, 10% micro emulsion three times a day, all skin lesions disappeared): 2; Obvious Effect, 1-4 days ([3]; number of patients): 2
6 | O=C(O)c1ccc(O)c(O)c1 [3,4-dihydroxybenzoic acid] | 1.90 × 10^4 copies/ml | 8.50 × 10^4 copies/ml |  |  | effect on the secretion of HBeAg by the 2.2.15 cells (in words) [4]: had inhibition effect; HBeAg Inhibition Rate [4]: 8.92%; effect on the secretion of HBsAg by the 2.2.15 cells (in words) [5]: had inhibition effect; HBsAg Inhibition rate [5]: 9.81%
7 | COC(=O)c1cc(O)c(O)c(O)c1 [Methyl gallate] | 0 copies/ml | 0 copies/ml | no HPV 6/11 or HPV 16/18 was detected | no HPV 6/11 or HPV 16/18 was detected | 
8 | COC(=O)c1cccc(O)c1O [Methyl 2,3-dihydroxybenzoate] | 3.00 × 10^4 copies/ml | 4.20 × 10^2 copies/ml |  |  | 
9 | CCCCCCCCOC(=O)c1cc(O)c(O)c(O)c1 [Octyl gallate] | 0 copies/ml | 0 copies/ml | no HPV 6/11 or HPV 16/18 was detected | no HPV 6/11 or HPV 16/18 was detected | 
10 | O=C(O)c1ccc(O)cc1O [2,4-dihydroxybenzoic acid] | 1.60 × 10^4 copies/ml | 4.60 × 10^3 copies/ml |  |  | 
11 | O=C(O)c1ccc(O)c(O)c1O [2,3,4-trihydroxybenzoic acid] | 0 copies/ml | 0 copies/ml | no HPV 6/11 or HPV 16/18 was detected | no HPV 6/11 or HPV 16/18 was detected | 
12 | CCCOC(=O)c1ccc(O)c(O)c1O [Propyl 2,3,4-trihydroxybenzoate] | 0 copies/ml | 0 copies/ml | no HPV 6/11 or HPV 16/18 was detected | no HPV 6/11 or HPV 16/18 was detected | 
13 | COC(=O)c1ccc(O)c(O)c1O [Methyl 2,3,4-trihydroxybenzoate] | 0 copies/ml | 0 copies/ml | no HPV 6/11 or HPV 16/18 was detected | no HPV 6/11 or HPV 16/18 was detected | 
14 | O=C(O)c1cc(O)c(O)c(O)c1 [Gallic acid] | 0 copies/ml | 0 copies/ml | no HPV 6/11 or HPV 16/18 was detected | no HPV 6/11 or HPV 16/18 was detected | treatment effect compared to recombinant human interferon α-2β gel [3]: more apparent treatment effect; Recovered, 1-4 days ([3]; all skin lesions disappeared): 2; Improved [3, 8]: 4; Obvious Effect, 1-4 days ([3]; number of patients): 3; Obvious Effect, 5-8 days ([3]; number of patients): 1; colour of solution, initial ([6]; micro emulsion pH 6.8, freshly prepared): colorless; absorbance after 30 days ([6]; micro emulsion pH 6.8, kept at room temperature for 30 days, 400˜500 nm): 1.2; colour of solution after 30 days ([6]; micro emulsion pH 6.8, room temperature for 30 days): light brown; effect on the secretion of HBeAg by the 2.2.15 cells (in words) [4]: had inhibition effect; HBeAg Inhibition Rate [4]: 9.40%; effect on the secretion of HBsAg by the 2.2.15 cells (in words) [5]: had inhibition effect; HBsAg Inhibition rate [5]: 8.83%; average time for recovery [7]: 3 days
15 | CCOC(=O)c1cc(O)c(O)c(O)c1 [Ethyl gallate] | 0 copies/ml | 0 copies/ml | no HPV 6/11 or HPV 16/18 was detected | no HPV 6/11 or HPV 16/18 was detected | 
16 | CCOC(=O)c1ccc(O)c(O)c1 [Ethyl 3,4-dihydroxybenzoate] |  |  |  |  | effect on the secretion of HBeAg by the 2.2.15 cells (in words) [4]: had inhibition effect; inhibition of HBeAg secretion compared with gallic acid and 3,4-dihydroxybenzoic acid [4]: more effective; HBeAg Inhibition Rate [4]: 6.04%; effect on the secretion of HBsAg by the 2.2.15 cells (in words) [5]: had inhibition effect; inhibition of HBsAg secretion compared with gallic acid and 3,4-dihydroxybenzoic acid [5]: more effective; HBsAg Inhibition rate [5]: 14.20%
17 | CCCCCCCCOC(=O)c1cccc(O)c1O [Octyl 2,3-dihydroxybenzoate] | 2.20 × 10^2 copies/ml | 1.50 × 10^2 copies/ml |  |  | 
18 | O=C(O)c1ccccc1O [Salicylic acid, salicylic acid, reference compound] | 5.50 × 10^5 copies/ml | 2.60 × 10^4 copies/ml |  |  | 
19 | O=C(O)c1ccc(O)cc1 [p-hydroxybenzoic acid] | 7.00 × 10^5 copies/ml | 1.30 × 10^3 copies/ml |  |  | treatment effect compared to recombinant human interferon α-2β gel [3]: more apparent treatment effect; Not Effective ([3]; number of patients, less than 30% of the skin lesions disappeared, observation 8 days): 3; Improved [3, 8]: 2; Obvious Effect, 5-8 days ([3]; number of patients): 5
20 | O=C(O)c1cc(Cl)c(O)c(Cl)c1 [3,5-dicloro-4-hydroxybenzoic acid] | 2.30 × 10^3 copies/ml | 2.60 × 10^4 copies/ml |  |  | 
21 | COC(=O)c1ccc(O)c(O)c1 [Methyl 3,4-dihydroxybenzoate] | 8.50 × 10^4 copies/ml | 6.00 × 10^2 copies/ml |  |  | 
22 | O=C(O)c1cccc(O)c1O [2,3-dihydroxybenzoic acid] | 2.30 × 10^4 copies/ml | 3.20 × 10^3 copies/ml |  |  | 
